Holding throughout (assay type): cell-based
For test [1], the system named is Escherichia coli ATCC 25922. Briefly: microbe, parasite or virus in culture. Conditions: ATCC 25922. The essentials:
(§1)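 MIC read visually as the lowest peptide concentration with no growth versus negative control, after 20–24 h at 35°C. Peptides were tested in duplicate 64-0.125μg/mL (final) in MHB or cation-supplemented MH II B, some with 10% lysed horse blood; inoculum 5 x 10^5 CFU/mL.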

Test [2] has as its system Escherichia coli clinical isolate - animal. The experiment in a line: microbe, parasite or virus in culture. Conditions: clinical isolate - animal. The essentials:
as §1

Test [3] deals with Pseudomonas aeruginosa ATCC 27853. Briefly: microbe, parasite or virus in culture. Conditions: ATCC 27853. An outline of the steps:
as §1

For test [4], the system named is Pseudomonas aeruginosa clinical isolate - animal. Briefly: microbe, parasite or virus in culture. The note with it: clinical isolate - animal. The essentials: as §1
Test [5] concerns Staphylococcus aureus ATCC 29213. Briefly: microbe, parasite or virus in culture. Conditions: ATCC 29213. The essentials: as §1
The subject of test [6] is Candida albicans Clinical isolate - human. The experiment in a line: microbe, parasite or virus in culture. Conditions: Clinical isolate - human. An outline of the steps: (§2)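 Endpoint is visible-growth inhibition (MIC) after 35°C, 20–24 h incubation. Yeast medium was RPMI-1640 MOPS; bacterial medium was Mueller Hinton broth, with or without divalent cations and lysed horse blood. Final peptide range 64-0.125μg/mL.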

Test [7] relates to Candida krusei ATCC 6258. The experiment in a line: microbe, parasite or virus in culture. The note with it: ATCC 6258. An outline of the steps:
as §2

Test [8] has as its system Candida parapsilosis ATCC 22019. The experiment in a line: microbe, parasite or virus in culture. The note with it: ATCC 22019; for MIC: read-out: MIC C. parapsilosis ATCC. The essentials:
as §2

In test [9] the test system is Streptococcus agalactiae ATCC 12386. Briefly: microbe, parasite or virus in culture. The note with it: ATCC 12386; read-out: MIC S. agalactiae ATCC. The essentials: as §2
Test [10] concerns Streptococcus agalactiae Clinical isolate - animal. Briefly: microbe, parasite or virus in culture. The note with it: clinical isolate - animal. The essentials:
as §2

Test [11] deals with Streptococcus pneumoniae ATCC 49619. Briefly: microbe, parasite or virus in culture. Conditions: ATCC 49619; read-out: MIC S. pneumoniae ATCC. An outline of the steps: as §2
Test [12] relates to Staphylococcus aureus clinical isolate – animal, methicillin-resistant (MRSA). The note with it: clinical isolate – animal, methicillin-resistant. As to the method: (§3) Antimicrobial testing of 78 cathelicidin MPs was performed in two phases as outlined in Figure 1 . In phase I, 40 peptides (27 extant and 13 ancestral) were selected for testing based on rank (outlined above) and similarity to published marsupial cathelicidins with known antimicrobial activity ([33], [41]–[43]). These peptides were tested against nine bacteria (Staphylococcus aureus ATCC 29213 and clinical isolate, Escherichia coli ATCC 25922 and clinical isolate, Pseudomonas aeruginosa ATCC 27853 and clinical isolate, Streptococcus agalactiae ATCC 12386 and clinical isolate, Streptococcus pneumoniae ATCC 49619) and three fungi (Candida krusei ATCC 6258, Candida parapsilosis ATCC 22019, and Candida albicans clinical isolate). Details regarding these strains are available in Supplementary Table 4 . The antimicrobial activity of cathelicidins was determined as the minimum inhibitory concentration (MIC), which was the lowest concentration of cathelicidin that prevented visible bacterial or fungal growth, relative to the negative control. […] Minimum bactericidal concentration (MBC) and/or minimum fungicidal concentration (MFC) was conducted to determine microbicidal versus static action. Activity against S. aureus ATCC, E. coli ATCC, and Pseudomonas aeruginosa ATCC 27853 was examined in the presence of divalent cations to determine the impact of inhibitors.
(§4) Antimicrobial activity was determined using a broth microdilution susceptibility assay in 96 well polypropylene plates according to Clinical Laboratory Standards Institute guidelines M07-A and M26A as described previously ([33], [42], [43]). The bacterial and fungal isolates from humans and animals used in this study are outlined in Supplementary Table 4 . Only yeasts were included in the panel of fungi as they have been used in the susceptibility testing of eutherian ([3], [81]–[83]) and other marsupial cathelicidins previously ([33], [42], [43]). Cathelicidin mature peptides were solubilized in DMSO and serially diluted in duplicate from 128-0.25μg/mL in a final volume of 100µL. For bacteria, cathelicidins were diluted in Mueller Hinton Broth (MHB) with or without 10% lysed horse blood, and with (MH II B) or without (MHB) calcium and magnesium cations. For fungi, cathelicidins were diluted in Roswell Park Memorial Institute medium (RPMI)-1640 MOPS. Ampicillin or tetracycline were included as a positive control for Gram-positive and -negative bacteria respectively, while amphotericin B was used for fungi. A media-only negative control and growth control (no cathelicidin) were also included on each plate. Bacteria were sub-cultured on Muller Hinton agar (MHA) or sheep blood agar (BA), and fungi on Sabouraud dextrose agar (SAB), 20–24 hours prior to the test. Colonies were suspended in saline, the concentration adjusted to a 0.5 McFarland standard, and then diluted in media to a concentration of 1.0 x 10^6 cells/mL. Then, 100μL was added to each well of the cathelicidin dilution plate, giving a final inoculum density of 5 x 10^5 CFU/mL and cathelicidin concentration of 64-0.125μg/mL. Colony counts were performed on MHA/BA/SAB to confirm inoculum density. All plates were incubated at 35°C for 20–24 hours, depending on the strain.
(§5) Colonies were counted and compared to the colony count of the starting inoculum.

In test [13] the test system is Staphylococcus aureus clinical isolate – animal, penicillin-resistant (PRSA). Conditions: clinical isolate – animal, penicillin-resistant (PRSA). As to the method: as §3, §4, §5
Test [14] concerns Staphylococcus aureus clinical isolate - animal. The experiment in a line: microbe, parasite or virus in culture. The note with it: clinical isolate - animal; read-out: MIC S. aureus. An outline of the steps: as §1
Setting [15] is: read-out: MIC P. aeruginosa ATCC.

The structures appear in SMILES notation. Values after ≈ are worked out from the molar mass of the structure shown. Read-outs that look alike come from different tables or passages of the source. Where a SMILES comes first, the peptide text is derived from it. Where only a bound is given, the exact number is not on record here.

The values below come from article PMC12006171, “Marsupial cathelicidins: characterization, antimicrobial activity and evolution in this unique mammalian lineage” (Frontiers in Immunology, 2025).

Turning to `CC[C@H](C)[C@H](NC(=O)CNC(=O)[C@H](C)NC(=O)[C@H](CC(C)C)NC(=O)[C@@H](NC(=O)[C@H](CCCNC(=N)N)NC(=O)[C@@H](NC(=O)[C@H](CCCNC(=N)N)NC(=O)[C@@H](N)CCCCN)[C@@H](C)CC)[C@@H](C)CC)C(=O)N[C@@H](Cc1c[nH]c2ccccc12)C(=O)N[C@@H](CC(=O)O)C(=O)N[C@@H](CCCNC(=N)N)C(=O)N[C@@H](CC(C)C)C(=O)N[C@@H](CCCCN)C(=O)N[C@@H](CC(N)=O)C(=O)N[C@@H](CC(C)C)C(=O)NCC(=O)N[C@@H](CC(N)=O)C(=O)N[C@@H](CCCNC(=N)N)C(=O)N[C@H](C(=O)N[C@@H](CCCCN)C(=O)N[C@@H](CC(N)=O)C(=O)N[C@@H](CCCNC(=N)N)C(=O)N[C@@H](CC(C)C)C(=O)N[C@@H](CCCNC(=N)N)C(=O)N[C@@H](CC(=O)O)C(=O)N[C@@H](Cc1ccccc1)C(=O)N[C@@H](Cc1ccccc1)C(=O)N[C@@H](CO)C(=O)O)[C@@H](C)CC` [AnstCath5] (H-KRIRILAGIWDRLKNLGNRIKNRLRDFFS-OH), the “MBC E. coli ATCC” value in [1] amounted to 8.9 µM (≈ 31.8 µg/mL). Moreover, the MIC in test [1] (read-out: MIC E. coli ATCC) is given as 4.4 µM (≈ 15.7 µg/mL); in test [1] (read-out: MIC in the presence of cations E. coli ATCC), 4.4 µM; in test [2], 8.9 µM (≈ 31.8 µg/mL); in test [3] (setting [15]) it was above 17.9 µM; in test [4] (read-out: MIC P. aeruginosa), 8.9 µM (≈ 31.8 µg/mL); in test [4] (read-out: MIC in the presence of cations P. aeruginosa), 17.9 µM. Further, the MIC in test [5] (read-out: MIC S. aureus ATCC) was 4.4 µM (≈ 15.7 µg/mL); in test [5] (read-out: MIC in the presence of cations S. aureus ATCC), 4.4 µM; in test [8] it was 13.5 µM (≈ 48.2 µg/mL); in test [9], above 17.9 µM; in test [11], above 17.9 µM. The “MBC E. coli” value in [2] was 17.9 µM (≈ 63.9 µg/mL). In test [2], the “MIC in the presence of cations E. coli” value was 8.9 µM. In addition, the “MBC P. aeruginosa” value in test [4] is on record as 17.9 µM (≈ 63.9 µg/mL). The “MBC S. aureus ATCC” value in [5] was 8.9 µM (≈ 31.8 µg/mL). Further, the MFC C. albicans in [6] is above 27.1 µM. In test [6], this molecule gave an MIC C. albicans of 27.1 µM (≈ 96.8 µg/mL). Besides, the MFC C. krusei ATCC in [7] was 13.5 µM (≈ 48.2 µg/mL). Further, the MIC C. krusei ATCC in test [7] amounted to 13.5 µM (≈ 48.2 µg/mL). Besides, the “MFC C. parapsilosis ATCC” value in [8] is on record as above 27.1 µM. In [10], this molecule had an MBC S. agalactiae of 8.9 µM (≈ 31.8 µg/mL). In test [10], this molecule displayed an MIC S. agalactiae of 8.9 µM (≈ 31.8 µg/mL). Also, the “MBC MRSA” value in [12] was found to be 8.9 µM (≈ 31.8 µg/mL). For the same molecule, in test [12], the “MIC MRSA” value turned out to be 4.4 µM (≈ 15.7 µg/mL). Further, in test [13], the MBC PRSA amounted to 4.4 µM (≈ 15.7 µg/mL). The MIC PRSA in [13] stood at 4.4 µM (≈ 15.7 µg/mL).
For the molecule `CC[C@H](C)[C@H](NC(=O)[C@H](CCCCN)NC(=O)[C@H](Cc1ccccc1)NC(=O)[C@H](CC(N)=O)NC(=O)[C@H](CCCCN)NC(=O)[C@H](CC(C)C)NC(=O)[C@H](CCCNC(=N)N)NC(=O)[C@H](CCCCN)NC(=O)[C@H](CCCCN)NC(=O)[C@@H](NC(=O)[C@H](CCC(=O)O)NC(=O)[C@H](CC(=O)O)NC(=O)CNC(=O)[C@H](Cc1ccccc1)NC(=O)[C@H](CCCCN)NC(=O)[C@H](CCCCN)NC(=O)[C@H](CC(C)C)NC(=O)[C@H](CCCCN)NC(=O)[C@H](CCCCN)NC(=O)[C@H](CCCCN)NC(=O)[C@H](CC(C)C)NC(=O)[C@H](Cc1c[nH]c2ccccc12)NC(=O)[C@H](CCCNC(=N)N)NC(=O)[C@H](Cc1ccccc1)NC(=O)CNC(=O)CNC(=O)[C@H](CCCNC(=N)N)NC(=O)[C@@H](N)CCCCN)[C@@H](C)CC)C(=O)NCC(=O)N[C@@H](Cc1ccccc1)C(=O)N[C@@H](CC(C)C)C(=O)N[C@H](C(=O)N1CCC[C@H]1C(=O)N[C@@H](CC(C)C)C(=O)O)[C@@H](C)CC` [MAP13] (H-KRGGFRWLKKKLKKFGDEIKKRLKNFKIGFLIPL-OH), the “MBC E. coli ATCC” value in test [1] is on record as 7.7 (7.7)^7.7 µM. In addition, the “MIC E. coli ATCC” value in test [1] is 7.7 (7.7)^7.7 µM. For the same molecule, the “MIC in the presence of cations E. coli ATCC” value in [1] was 7.7 (7.7)^7.7 µM. In addition, in test [2], the “MBC E. coli” value is on record as 7.7 (7.7)^7.7 µM. The “MIC E. coli” value in [2] is reported as 7.7 (7.7)^7.7 µM. Also, in test [2], the “MIC in the presence of cations E. coli” value was 7.7 (7.7)^7.7 µM. For the same molecule, the “MBC P. aeruginosa ATCC” value in [3] was 15.4 µM (≈ 63.6 µg/mL). The MIC is 7.7 µM (≈ 31.8 µg/mL) in [3] (setting [15]); 15.4 µM in test [3] (read-out: MIC in the presence of cations P. aeruginosa ATCC); above 15.4 µM in test [5] (read-out: MIC S. aureus ATCC); above 15.4 µM in [14]; above 15.4 µM in test [6] (read-out: MIC C. albicans); above 15.4 µM in test [7] (read-out: MIC C. krusei ATCC). For the same molecule, the MIC was 7.7 µM (≈ 31.8 µg/mL) in test [8], above 15.4 µM in test [9], above 15.4 µM in test [10] (read-out: MIC S. agalactiae) and above 15.4 µM in [11]. Further, the “MBC P. aeruginosa” value in test [4] is listed as 15.4 (15.4)^15.4 µM. Besides, the “MIC P. aeruginosa” value in test [4] is 15.4 (15.4)^15.4 µM. In test [4], the “MIC in the presence of cations P. aeruginosa” value was 15.4 (15.4)^15.4 µM. Moreover, in test [8], the “MFC C. parapsilosis ATCC” value was above 15.4 µM.
